Data on nine compounds can be found in paper PMC10609152, “Synthesis, Computational, and Anticancer In Vitro Investigations of Aminobenzylnaphthols Derived from 2-Naphtol, Benzaldehydes, and α-Aminoacids via the Betti Reaction” (Molecules, 2023).

The test system of data set [1] is HT-29 cells. Description: MTT assay, HT-29. Format: cell-based. Particulars: Homo sapiens. An excerpt:
(§1) The MTT assay, also known as the 3-(4,5-dimethylthiazol-2-yl)-2,5-diphenyltetrazolium bromide assay, is a colorimetric assay used in biological and biomedical research to determine cell viability and proliferation. The MTT assay works on the assumption that live cells with active metabolism convert MTT into formazan crystals. These crystals are insoluble; however, they can be dissolved in an organic solvent such as DMSO to produce a colorful solution. The color intensity is proportional to the number of viable cells present in the culture.
(§2) BxPC-3, HT-29, and WI-38 cells were seeded on 96-well plates at a density of approximately 8–10 × 10^3 cells per 100 µL medium/well. Cells were allowed to grow for 24 h in controlled conditions (37 °C; 5% CO2). […] The experimental design included nontreated controls and blanks (wells without cells). Following 24 or 72 h of culture with the investigated compounds, 20 μL of MTT tetrazolium salt (5 mg/mL in PBS) was added to each well, and the plates were incubated for 3 h in a humidified environment (37 °C; 5% CO2). The solutions were withdrawn after incubation, and 100 μL of DMSO was added to dissolve the formazan complexes. Afterward, a spectrophotometer (microplate reader Power Wave XS BioTek Instruments, Inc., Winooski, VT, USA) reading at 570 nm was conducted. The experiments were carried out in duplicates.
(§3) GraphPad Prism 7 software was used to calculate the concentration of an MMZ compound reflecting a 50% growth inhibition (IC50). IC50 is defined as a concentration of tested compound that leads to a reduction in cell pool viability by 50% compared to the negative control (accepted as 100%). % cell viability=Absorbance value of treated cells−Absorbance value of blank/(Absorbance value of untreated cells−Absorbance value of blank)×100%

Data set [2] relates to BxPC-3 cells. As to the kind of experiment: MTT assay, BxPC-3. It is filed as cell-based. Particulars: Homo sapiens.
Excerpt: as §1, §2, §3

Data set [3] can be described thus: MTT cell viability, WI-38 normal fibroblasts. It is filed as cell-based. Particulars: human, read-out: % cell viability ± SD; for viability at 72 h: WI-38, 72 h; for viability at 24 h: WI-38, 24 h. How it is done: as §2, §3
Data set [4] is described as follows: solubility (remark). Format: physicochemical.
Setting [5] is: HT-29, 24-h MTT, independent experiment 1, read-out: IC50(1).
The mark [6] stands for this setting: HT-29, 24-h MTT, independent experiment 2, read-out: IC50(2).
Where [7] appears, read: HT-29, 24-h MTT, read-out: Mean IC50 ± SD.
Where [8] appears, read: HT-29, 72-h MTT, independent experiment 1, read-out: IC50(1).
Setting [9] is: HT-29, 72-h MTT, independent experiment 2, read-out: IC50(2).
[10] abbreviates: HT-29, 72-h MTT, read-out: Mean IC50 ± SD.
The mark [11] stands for this setting: BxPC-3, 24-h MTT, independent experiment 1, read-out: IC50(1).
[12] abbreviates: BxPC-3, 24-h MTT, independent experiment 2, read-out: IC50(2).
Where [13] appears, read: BxPC-3, 24-h MTT, read-out: Mean IC50 ± SD.
The mark [14] stands for this setting: BxPC-3, 72-h MTT, independent experiment 1, read-out: IC50(1).
The mark [15] stands for this setting: BxPC-3, 72-h MTT, independent experiment 2, read-out: IC50(2).
The mark [16] stands for this setting: BxPC-3, 72-h MTT, read-out: Mean IC50 ± SD.
[17] abbreviates: WI-38 normal fibroblast cells, compound at IC50 concentration obtained for HT-29 cells.
Where [18] appears, read: HT-29, 24 h, read-out: Mean IC50 ± SD.
[19] abbreviates: HT-29, 72 h, read-out: Mean IC50 ± SD.
[20] abbreviates: BXPC-3, 24 h, read-out: IC50(1).
Setting [21] is: BXPC-3, 24 h, read-out: IC50(2).
Where [22] appears, read: BXPC-3, 24 h, read-out: Mean IC50 ± SD.
Where [23] appears, read: BXPC-3, 72 h, read-out: IC50(1).
[24] abbreviates: BXPC-3, 72 h, read-out: IC50(2).
Where [25] appears, read: BXPC-3, 72 h, read-out: Mean IC50 ± SD.
[26] abbreviates: compound at IC50 concentration estimated for BxPC-3 cells.
[27] abbreviates: compound at IC50 concentration obtained for HT-29 cells.
Where [28] appears, read: WI-38 normal fibroblast cells, compound at IC50 concentration estimated for BxPC-3 cells.

Where two headings read alike, the source gives them in different places.

Regarding `COC(=O)[C@@H](N[C@@H](c1ccccc1)c1c(O)ccc2ccccc12)C(C)C` (mixture of isomers) [MMZ-33D, (S,S) and (R,R)-methyl ((2-hydroxynaphthalen-1-yl)(phenyl)methyl)-D-valinate], the IC50 in data set [1] (setting [5]) is 60.4 µM; in data set [1] (setting [6]), 61.9 µM; in data set [1] (setting [7]), 61.1 ± 1.02 µM; in data set [1] (setting [8]) it was 32.3 µM; in data set [1] (setting [9]), 43.4 µM; in data set [1] (setting [10]), 37.9 ± 7.86 µM. Moreover, the IC50 came to 47.8 µM in data set [2] (setting [11]); 50.8 µM in data set [2] (setting [12]); 49.3 ± 2.09 µM in data set [2] (setting [13]); 50 µM in data set [2] (setting [14]); 28.7 µM in data set [2] (setting [15]); 39.4 ± 15.1 µM in data set [2] (setting [16]).

As for `COC(=O)[C@@H](N[C@@H](c1ccc(Cl)cc1)c1c(O)ccc2ccccc12)C(C)C` (mixture of isomers) [MMZ-39AA, (S,S) and (R,R)-methyl ((4-chlorophenyl)(2-hydroxynaphthalen-1-yl)methyl)-D-valinate], the IC50 was 62.1 µM in data set [1] (setting [5]); 64 µM in data set [1] (setting [6]); 63.1 ± 1.36 µM in data set [1] (setting [7]); 50.6 µM in data set [1] (setting [8]); 65.6 µM in data set [1] (setting [9]); 58.1 µM in data set [1] (setting [10]). Moreover, the IC50 in data set [2] (setting [11]) was 61.4 µM; in data set [2] (setting [12]) it was 60.3 µM; in data set [2] (setting [13]), 60.8 ± 0.8 µM; in data set [2] (setting [14]), 44.8 µM; in data set [2] (setting [15]) it was 41.6 µM; in data set [2] (setting [16]), 43.2 ± 2.26 µM. The viability at 72 h in data set [3] (setting [17]) is 64 ± 4.9%.

On to `COC(=O)[C@H](Cc1ccccc1)N[C@H](c1ccccc1)c1c(O)ccc2ccccc12` (mixture of isomers) [MMZ-45B, (S,R) and (R,S)-methyl ((2-hydroxynaphthalen-1-yl)(phenyl)methyl)-L-phenylalaninate], for which the IC50 in data set [1] (HT-29, 24 h, read-out: IC50(1)) stood at 29 µM; in data set [1] (HT-29, 24 h, read-out: IC50(2)) it was 34.6 µM; in data set [1] (setting [18]), 31.8 ± 3.93 µM; in data set [1] (HT-29, 72 h, read-out: IC50(1)), 29.6 µM; in data set [1] (HT-29, 72 h, read-out: IC50(2)) it was 38.7 µM; in data set [1] (setting [19]) it was 34.1 ± 6.39 µM. Also, the IC50 in data set [2] (setting [20]) was found to be 58.5 µM; in data set [2] (setting [21]) it was 40.5 µM; in data set [2] (setting [22]), 49.3 ± 13 µM; in data set [2] (setting [23]) it was 35.6 µM; in data set [2] (setting [24]), 24.7 µM; in data set [2] (setting [25]) it was 30.1 ± 7.73 µM. Also, in data set [3] (setting [26]), the viability at 24 h was 91.73 ± 0.87%. The viability at 72 h in data set [3] (setting [26]) was 86.7 ± 8.14%; in data set [3] (setting [27]), 88.2 ± 1.6%.

With `COC(=O)C[C@H](N[C@@H](c1ccccc1)c1c(O)ccc2ccccc12)C(=O)OC` (mixture of isomers) [MMZ-147B, (S,S) and (R,R)-dimethyl ((2-hydroxynaphthalen-1-yl)(phenyl)methyl)-L-aspartate], the IC50 came to 44.2 µM in data set [1] (setting [5]); 46.8 µM in data set [1] (setting [6]); 45.5 ± 1.77 µM in data set [1] (setting [7]); 12.2 µM in data set [1] (setting [8]); 17.6 µM in data set [1] (setting [9]); 14.9 ± 3.8 µM in data set [1] (setting [10]). For the same compound, the IC50 in data set [2] (setting [11]) is 44.8 µM; in data set [2] (setting [12]), 59.7 µM; in data set [2] (setting [14]), 69.8 µM; in data set [2] (setting [15]), 39.3 µM; in data set [2] (setting [16]), 54.6 µM. Besides, in data set [3] (setting [28]), the viability at 24 h is 69.94 ± 0.21%. The viability at 72 h is 72.5 ± 4.37% in data set [3] (setting [28]) and 86.8 ± 5% in data set [3] (setting [17]).

In the case of `COC(=O)C[C@H](N[C@H](c1ccccc1)c1c(O)ccc2ccccc12)C(=O)OC` (mixture of isomers) [MMZ-147CE, (S,R) and (R,S)-dimethyl ((2-hydroxynaphthalen-1-yl)(phenyl)methyl)-L-aspartate], the IC50 in data set [1] (HT-29, 24 h, read-out: IC50(1)) was found to be 113 µM; in data set [1] (HT-29, 24 h, read-out: IC50(2)) it was 110 µM; in data set [1] (setting [18]), 112 ± 2.12 µM; in data set [1] (HT-29, 72 h, read-out: IC50(1)), 37.1 µM; in data set [1] (HT-29, 72 h, read-out: IC50(2)), 46.1 µM; in data set [1] (setting [19]) it was 41.6 ± 6.32 µM. The IC50 in data set [2] (setting [20]) is 54.1 µM; in data set [2] (setting [21]), 41 µM; in data set [2] (setting [22]), 47.5 ± 9.26 µM; in data set [2] (setting [23]) it was 59.6 µM; in data set [2] (setting [24]), 34.1 µM; in data set [2] (setting [25]), 46.8 ± 18 µM. Moreover, the viability at 24 h in data set [3] (setting [26]) is 82.5 ± 1.8%. Moreover, the viability at 72 h in data set [3] (setting [27]) stood at 66.9 ± 1.08%.

In the case of `COC(=O)CC[C@H](N[C@@H](c1ccccc1)c1c(O)ccc2ccccc12)C(=O)OC` (mixture of isomers) [MMZ-148B, (S,S) and (R,R)-dimethyl ((2-hydroxynaphthalen-1-yl)(phenyl)methyl)-L-glutamate], the solubility entry in data set [4] is reported as “poor solubility”.

Consider `COC(=O)CC[C@H](N[C@H](c1ccccc1)c1c(O)ccc2ccccc12)C(=O)OC` (mixture of isomers) [MMZ-148C, (S,R) and (R,S)-dimethyl ((2-hydroxynaphthalen-1-yl)(phenyl)methyl)-L-glutamate], for which the solubility entry in data set [4] is recorded as “poor solubility”.

On to `COC(=O)[C@H](CC(C)C)N[C@@H](c1ccccc1)c1c(O)ccc2ccccc12` (mixture of isomers) [MMZ-167C, (S,S) and (R,R)-methyl ((2-hydroxynaphthalen-1-yl)(phenyl)methyl)-L-leucinate], for which the IC50 in data set [1] (setting [5]) turned out to be 47.7 µM; in data set [1] (setting [6]), 50 µM; in data set [1] (setting [8]) it was 27.8 µM; in data set [1] (setting [9]), 28.4 µM; in data set [1] (setting [10]), 28.1 ± 0.375 µM; in data set [2] (setting [11]), 71.4 µM. Moreover, the IC50 in data set [2] (setting [12]) was determined as 61 µM; in data set [2] (setting [13]) it was 66.2 ± 7.36 µM; in data set [2] (setting [14]), 32.9 µM; in data set [2] (setting [15]), 31.2 µM; in data set [2] (setting [16]), 32.1 ± 1.15 µM. Besides, the viability at 24 h in data set [3] (setting [28]) is 76.8 ± 1.8%; in data set [3] (setting [17]), 82.19 ± 0.69%.

Take `O=c1[nH]cc(F)c(=O)[nH]1` [5-Fluorouracil, reference compound]: the IC50 worked out at 48.8 µM in data set [1] (setting [5]); 55.7 µM in data set [1] (setting [6]); 52.3 ± 4.9 µM in data set [1] (setting [7]); 5.16 µM in data set [1] (setting [8]); 3.6 µM in data set [1] (setting [9]); 4.38 ± 1.1 µM in data set [1] (setting [10]). The IC50 in data set [2] (setting [11]) amounted to 49.4 µM; in data set [2] (setting [12]), 28.6 µM; in data set [2] (setting [13]) it was 39 ± 14.7 µM; in data set [2] (setting [14]) it was 14.8 µM; in data set [2] (setting [15]), 12.1 µM; in data set [2] (setting [16]), 13.4 ± 1.9 µM.

What is called IC50 is the concentration needed to halve the response being measured. What is called viability is a read-out of living cells in per cent, often relative to untreated cells.
